Measurements published in ChEMBL document CHEMBL1201862, “PubChem BioAssay data set” (2004).
Active and inactive are the calls of the source.

Columns and labels:
Caspase-3 = target: T1, Caspase-3 (Homo sapiens, UniProt P42574); assay type: functional;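 further: Dose-response selectivity test against caspase-3 for candidate inhibitors of sentrin-specific proteases (SENPs)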
T1 sequence (P42574 whole entry): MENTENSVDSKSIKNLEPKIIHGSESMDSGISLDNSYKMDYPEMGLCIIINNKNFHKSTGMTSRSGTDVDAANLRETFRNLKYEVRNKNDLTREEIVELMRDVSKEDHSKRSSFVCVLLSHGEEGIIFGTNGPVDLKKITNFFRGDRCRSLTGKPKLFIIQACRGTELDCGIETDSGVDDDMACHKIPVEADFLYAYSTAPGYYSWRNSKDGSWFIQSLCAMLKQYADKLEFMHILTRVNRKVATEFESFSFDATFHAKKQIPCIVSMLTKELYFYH

Genome polyprotein = Genome polyprotein (dengue virus type 2, UniProt P29990); assay: Dengue-2 NS5 methyltransferase inhibitors, primary screen, biochemical, confirmation dose response (AID 588689); assay type: functional
Genome polyprotein, sequence (P29990 2492-3391 limits assumed): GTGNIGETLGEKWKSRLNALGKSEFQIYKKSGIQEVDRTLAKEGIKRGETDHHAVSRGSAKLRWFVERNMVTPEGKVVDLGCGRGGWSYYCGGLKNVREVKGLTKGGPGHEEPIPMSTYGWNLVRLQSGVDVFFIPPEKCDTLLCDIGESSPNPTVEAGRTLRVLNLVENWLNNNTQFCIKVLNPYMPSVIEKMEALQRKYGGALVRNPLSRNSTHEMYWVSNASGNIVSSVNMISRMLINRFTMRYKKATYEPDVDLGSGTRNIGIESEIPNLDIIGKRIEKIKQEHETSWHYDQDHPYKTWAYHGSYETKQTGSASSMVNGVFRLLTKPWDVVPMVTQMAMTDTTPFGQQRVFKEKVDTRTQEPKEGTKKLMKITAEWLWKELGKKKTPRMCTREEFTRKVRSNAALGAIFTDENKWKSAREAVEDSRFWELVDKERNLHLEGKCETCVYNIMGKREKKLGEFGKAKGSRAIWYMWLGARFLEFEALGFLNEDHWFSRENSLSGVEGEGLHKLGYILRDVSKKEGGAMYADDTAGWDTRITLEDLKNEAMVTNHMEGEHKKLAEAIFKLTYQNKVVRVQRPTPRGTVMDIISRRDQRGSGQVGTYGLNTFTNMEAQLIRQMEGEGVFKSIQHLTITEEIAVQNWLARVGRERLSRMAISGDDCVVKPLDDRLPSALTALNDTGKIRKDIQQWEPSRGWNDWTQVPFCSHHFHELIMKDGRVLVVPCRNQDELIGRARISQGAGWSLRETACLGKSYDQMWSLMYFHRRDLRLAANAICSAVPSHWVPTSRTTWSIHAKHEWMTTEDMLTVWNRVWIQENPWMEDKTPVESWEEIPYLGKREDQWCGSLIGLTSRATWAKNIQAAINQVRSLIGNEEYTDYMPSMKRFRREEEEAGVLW

Caspase-6 = target: T2, Caspase-6 (Homo sapiens, UniProt P55212); assay: human caspase-6 inhibitors, dose response, biochemical, VEID-R110 fluorescence, cherry-pick (AID 720632)
T2 sequence (P55212 whole entry): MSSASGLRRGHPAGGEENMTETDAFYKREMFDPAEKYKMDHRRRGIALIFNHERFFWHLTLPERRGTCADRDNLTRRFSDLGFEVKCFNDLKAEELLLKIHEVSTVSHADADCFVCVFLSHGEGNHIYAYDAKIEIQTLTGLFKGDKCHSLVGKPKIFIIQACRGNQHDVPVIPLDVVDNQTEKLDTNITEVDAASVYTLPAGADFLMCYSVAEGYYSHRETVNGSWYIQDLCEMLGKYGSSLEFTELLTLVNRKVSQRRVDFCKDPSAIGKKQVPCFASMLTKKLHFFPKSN

[1] = target: Dual specificity protein kinase CLK2 (Homo sapiens, UniProt P49760); assay type: functional
[2] = target: Tyrosine-protein kinase Fyn (Homo sapiens, UniProt P06241); assay type: functional
Tyrosine-protein kinase Fyn, sequence (P06241 whole entry): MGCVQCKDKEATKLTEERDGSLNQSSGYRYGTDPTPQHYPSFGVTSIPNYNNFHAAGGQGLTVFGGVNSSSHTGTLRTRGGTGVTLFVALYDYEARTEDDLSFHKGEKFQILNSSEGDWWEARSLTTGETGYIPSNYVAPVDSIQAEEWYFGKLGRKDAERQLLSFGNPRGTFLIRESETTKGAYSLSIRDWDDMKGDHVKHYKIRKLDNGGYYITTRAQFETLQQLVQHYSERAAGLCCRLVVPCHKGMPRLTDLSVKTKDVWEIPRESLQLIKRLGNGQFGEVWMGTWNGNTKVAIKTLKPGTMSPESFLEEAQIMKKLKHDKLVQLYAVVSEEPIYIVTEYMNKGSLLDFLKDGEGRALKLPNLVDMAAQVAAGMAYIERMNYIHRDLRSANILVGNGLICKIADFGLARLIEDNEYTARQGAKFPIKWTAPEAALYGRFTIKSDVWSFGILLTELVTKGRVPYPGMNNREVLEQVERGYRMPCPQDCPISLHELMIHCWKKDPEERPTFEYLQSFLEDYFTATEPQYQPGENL

Activated CDC42 kinase 1 = Activated CDC42 kinase 1 (Homo sapiens, UniProt Q07912); assay: Navigating the Kinome. Panel member name: ACK1; assay type: functional
[3] = target: Cyclin-dependent kinase 8 (Homo sapiens, UniProt P49336); assay: Navigating the Kinome. Panel member name: CDK8; assay type: functional
Cyclin-dependent kinase 8, sequence (P49336 whole entry): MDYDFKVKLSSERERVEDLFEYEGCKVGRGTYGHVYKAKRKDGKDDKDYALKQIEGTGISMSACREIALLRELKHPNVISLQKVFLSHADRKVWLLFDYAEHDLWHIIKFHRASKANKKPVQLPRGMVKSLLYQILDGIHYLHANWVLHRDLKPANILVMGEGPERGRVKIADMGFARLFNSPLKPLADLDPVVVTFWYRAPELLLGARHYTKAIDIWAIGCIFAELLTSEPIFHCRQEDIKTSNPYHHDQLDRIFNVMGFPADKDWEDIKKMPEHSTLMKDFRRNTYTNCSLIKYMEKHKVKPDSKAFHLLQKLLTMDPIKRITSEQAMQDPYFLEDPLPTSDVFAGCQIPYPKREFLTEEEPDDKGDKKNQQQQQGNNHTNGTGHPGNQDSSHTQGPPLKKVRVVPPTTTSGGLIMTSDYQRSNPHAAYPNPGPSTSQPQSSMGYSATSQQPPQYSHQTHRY

[4] = target: Vascular endothelial growth factor receptor 2 (Homo sapiens, UniProt P35968); assay type: functional
Vascular endothelial growth factor receptor 2, sequence (P35968 whole entry): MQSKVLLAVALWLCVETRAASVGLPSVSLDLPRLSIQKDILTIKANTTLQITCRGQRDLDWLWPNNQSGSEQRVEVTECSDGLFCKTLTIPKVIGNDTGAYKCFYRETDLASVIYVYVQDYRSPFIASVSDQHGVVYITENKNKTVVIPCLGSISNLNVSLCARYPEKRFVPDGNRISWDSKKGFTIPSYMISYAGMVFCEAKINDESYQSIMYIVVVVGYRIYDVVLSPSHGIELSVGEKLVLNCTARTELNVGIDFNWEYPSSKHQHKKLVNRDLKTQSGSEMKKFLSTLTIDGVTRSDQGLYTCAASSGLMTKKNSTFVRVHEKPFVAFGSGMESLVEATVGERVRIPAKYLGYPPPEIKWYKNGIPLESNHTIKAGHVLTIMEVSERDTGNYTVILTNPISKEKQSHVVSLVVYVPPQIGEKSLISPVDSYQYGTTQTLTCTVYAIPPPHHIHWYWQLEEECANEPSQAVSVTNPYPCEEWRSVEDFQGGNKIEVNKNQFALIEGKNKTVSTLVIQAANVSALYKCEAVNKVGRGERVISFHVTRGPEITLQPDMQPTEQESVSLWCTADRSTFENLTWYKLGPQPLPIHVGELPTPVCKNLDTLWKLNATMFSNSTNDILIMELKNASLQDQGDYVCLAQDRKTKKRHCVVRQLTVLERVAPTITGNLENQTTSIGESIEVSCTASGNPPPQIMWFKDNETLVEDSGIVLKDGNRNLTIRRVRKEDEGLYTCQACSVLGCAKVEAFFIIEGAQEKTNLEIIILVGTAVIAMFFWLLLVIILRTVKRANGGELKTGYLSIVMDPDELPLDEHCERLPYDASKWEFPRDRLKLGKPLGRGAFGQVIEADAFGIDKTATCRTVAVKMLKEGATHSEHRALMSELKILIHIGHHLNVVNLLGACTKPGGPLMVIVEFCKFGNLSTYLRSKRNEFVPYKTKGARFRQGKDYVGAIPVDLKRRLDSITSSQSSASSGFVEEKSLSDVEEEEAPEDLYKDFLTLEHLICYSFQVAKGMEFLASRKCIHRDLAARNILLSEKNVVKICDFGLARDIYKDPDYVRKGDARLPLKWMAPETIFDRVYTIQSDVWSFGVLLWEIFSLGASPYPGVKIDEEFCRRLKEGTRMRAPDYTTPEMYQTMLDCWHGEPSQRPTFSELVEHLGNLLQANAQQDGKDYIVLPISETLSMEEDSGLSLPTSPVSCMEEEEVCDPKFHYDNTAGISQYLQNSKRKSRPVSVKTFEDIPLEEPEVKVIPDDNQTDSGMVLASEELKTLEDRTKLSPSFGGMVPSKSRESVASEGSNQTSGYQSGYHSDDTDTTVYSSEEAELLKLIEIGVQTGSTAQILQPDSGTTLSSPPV

[5] = target: Fibroblast growth factor receptor 1 (Homo sapiens, UniProt P11362); assay type: functional
Fibroblast growth factor receptor 1, sequence (P11362 whole entry): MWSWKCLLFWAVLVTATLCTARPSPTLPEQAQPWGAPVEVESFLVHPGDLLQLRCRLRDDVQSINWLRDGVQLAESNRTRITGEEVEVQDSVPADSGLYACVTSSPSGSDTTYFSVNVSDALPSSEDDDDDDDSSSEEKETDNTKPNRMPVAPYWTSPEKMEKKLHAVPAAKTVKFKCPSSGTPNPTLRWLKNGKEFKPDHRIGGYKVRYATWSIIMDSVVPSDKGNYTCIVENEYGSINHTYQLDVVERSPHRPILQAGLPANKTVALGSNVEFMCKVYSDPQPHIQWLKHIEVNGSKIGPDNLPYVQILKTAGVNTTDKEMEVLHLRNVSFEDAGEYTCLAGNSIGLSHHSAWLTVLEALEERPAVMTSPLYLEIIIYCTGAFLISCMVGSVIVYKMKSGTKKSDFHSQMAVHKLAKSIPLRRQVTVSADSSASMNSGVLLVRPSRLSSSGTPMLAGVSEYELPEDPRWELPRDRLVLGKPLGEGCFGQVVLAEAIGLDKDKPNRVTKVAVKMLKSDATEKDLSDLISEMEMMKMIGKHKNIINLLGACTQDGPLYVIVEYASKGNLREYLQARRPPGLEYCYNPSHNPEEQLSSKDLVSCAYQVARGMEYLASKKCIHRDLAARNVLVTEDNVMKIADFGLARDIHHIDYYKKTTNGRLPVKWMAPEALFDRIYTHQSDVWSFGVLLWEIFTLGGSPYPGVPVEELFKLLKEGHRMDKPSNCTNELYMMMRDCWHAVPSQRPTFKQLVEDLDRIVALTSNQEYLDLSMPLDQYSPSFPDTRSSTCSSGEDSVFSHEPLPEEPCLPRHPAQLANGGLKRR

[6] = target: BDNF/NT-3 growth factors receptor (Homo sapiens, UniProt Q16620); assay type: functional;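 further: NTRK2 measured as one member of a broad kinome-wide kinase profiling panel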
[7] = target: Proto-oncogene tyrosine-protein kinase receptor Ret (Homo sapiens, UniProt P07949); assay type: functional;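 further: measured within a kinome-wide profiling panel, RET as the panel member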
[8] = target: Receptor-type tyrosine-protein kinase FLT3 (Homo sapiens, UniProt P36888); assay type: functional;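 further: FLT3 was tested as one member of a kinome-wide kinase panel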
[9] = target: 5'-AMP-activated protein kinase catalytic subunit alpha-1 (Homo sapiens, UniProt Q13131); assay type: functional
5'-AMP-activated protein kinase catalytic subunit alpha-1, sequence (Q13131 whole entry): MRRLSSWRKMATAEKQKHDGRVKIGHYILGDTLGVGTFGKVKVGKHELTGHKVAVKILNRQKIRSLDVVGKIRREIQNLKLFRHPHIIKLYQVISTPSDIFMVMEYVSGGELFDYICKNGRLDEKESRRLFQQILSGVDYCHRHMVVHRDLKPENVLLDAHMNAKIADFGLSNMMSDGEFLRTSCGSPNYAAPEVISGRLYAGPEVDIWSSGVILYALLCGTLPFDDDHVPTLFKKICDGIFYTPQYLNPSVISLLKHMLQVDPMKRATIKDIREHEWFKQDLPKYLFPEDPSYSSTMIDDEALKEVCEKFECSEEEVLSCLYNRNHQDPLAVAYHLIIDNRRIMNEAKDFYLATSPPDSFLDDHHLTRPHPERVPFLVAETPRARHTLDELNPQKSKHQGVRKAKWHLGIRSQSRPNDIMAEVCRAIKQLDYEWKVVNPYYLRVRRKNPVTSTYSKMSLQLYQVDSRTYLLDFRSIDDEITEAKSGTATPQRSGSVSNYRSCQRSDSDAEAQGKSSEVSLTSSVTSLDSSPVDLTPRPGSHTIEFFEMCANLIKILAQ

Large T antigen = Large T antigen (Simian virus 40, UniProt P03070); assay type: functional, Betapolyomavirus macacae;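 further: Confirmatory-stage PubChem screen for compounds that inhibit SV40 T antigen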
[10] = target: T3, 1-phosphatidylinositol 4,5-bisphosphate phosphodiesterase gamma-1 (Homo sapiens, UniProt P19174); assay: Counterscreen for inhibitors of phospholipase C isozymes (PLC-B3): Fluorescence-based biochemical high throughput dose response assay to identify inhibitors of phospholipase C isozymes (PLC-gamma1).
T3 sequence (P19174 whole entry): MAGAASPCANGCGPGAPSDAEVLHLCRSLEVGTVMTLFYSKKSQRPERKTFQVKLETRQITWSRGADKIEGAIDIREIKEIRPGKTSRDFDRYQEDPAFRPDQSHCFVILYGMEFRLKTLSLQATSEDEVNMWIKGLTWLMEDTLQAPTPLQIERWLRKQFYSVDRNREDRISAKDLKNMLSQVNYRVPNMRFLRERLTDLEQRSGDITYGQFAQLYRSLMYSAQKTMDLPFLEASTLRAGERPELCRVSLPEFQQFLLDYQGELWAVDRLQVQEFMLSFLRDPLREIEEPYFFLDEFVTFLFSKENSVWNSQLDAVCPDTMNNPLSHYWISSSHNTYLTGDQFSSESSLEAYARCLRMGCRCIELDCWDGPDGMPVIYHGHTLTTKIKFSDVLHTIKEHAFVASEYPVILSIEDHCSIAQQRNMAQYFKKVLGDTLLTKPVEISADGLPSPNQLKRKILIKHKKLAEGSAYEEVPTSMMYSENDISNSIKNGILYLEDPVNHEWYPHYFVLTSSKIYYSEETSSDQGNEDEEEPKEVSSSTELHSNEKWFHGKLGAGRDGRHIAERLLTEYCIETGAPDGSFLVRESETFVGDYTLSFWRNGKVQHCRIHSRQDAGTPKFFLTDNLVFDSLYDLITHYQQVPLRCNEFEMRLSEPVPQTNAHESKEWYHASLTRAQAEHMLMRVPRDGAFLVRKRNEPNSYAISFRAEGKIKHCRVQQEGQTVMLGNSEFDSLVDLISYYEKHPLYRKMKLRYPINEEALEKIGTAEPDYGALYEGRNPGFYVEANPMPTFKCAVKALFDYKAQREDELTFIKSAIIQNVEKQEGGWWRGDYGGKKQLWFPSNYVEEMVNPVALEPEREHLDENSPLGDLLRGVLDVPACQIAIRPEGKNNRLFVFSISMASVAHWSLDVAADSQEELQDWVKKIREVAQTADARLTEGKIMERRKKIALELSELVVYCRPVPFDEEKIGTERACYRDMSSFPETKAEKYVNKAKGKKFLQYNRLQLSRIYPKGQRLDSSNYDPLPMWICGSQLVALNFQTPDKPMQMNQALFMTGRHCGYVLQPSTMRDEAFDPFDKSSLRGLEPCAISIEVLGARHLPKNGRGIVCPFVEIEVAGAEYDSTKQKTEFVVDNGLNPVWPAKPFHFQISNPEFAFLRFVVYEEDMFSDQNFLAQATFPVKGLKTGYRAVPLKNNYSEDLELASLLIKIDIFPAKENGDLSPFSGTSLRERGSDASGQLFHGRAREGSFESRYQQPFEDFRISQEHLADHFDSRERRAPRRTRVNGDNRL

`CC(=O)N(C1=C(Cl)C(=O)c2ccccc2C1=O)c1ccc(C(=O)O)cc1` was tested, and the IC50 (Caspase-3) was 14.2 µM (active) and the IC50 (Genome polyprotein) was 5.89 µM (active).
In the case of `CC1(C)C=C2C(=NN(c3ccccc3)C(N)=C2C#N)CO1`, the AC50 (Caspase-6) is reported as 1.07 µM (active).
With `Cc1ccc(-c2cc3nc(Br)cnc3[nH]2)cc1` the Ki [1] was > 3.98 µM (inactive), the Ki [2] was > 6.31 µM (inactive) and the Ki (Activated CDC42 kinase 1) was > 3.98 µM (inactive). The Ki [3] was > 3.98 µM (inactive), the Ki [4] was 1.26 µM (active) and the Ki [5] was > 3.98 µM (inactive). For the same compound, the Ki [6] was > 3.98 µM (inactive), the Ki [7] was 2.51 µM (active) and the Ki [8] was > 3.16 µM (inactive). The Ki [9] was 3.16 µM (active).
In the case of `O=C1C=C(O)c2c(O)cc(O)c(O)c2C1=O`, the IC50 (Large T antigen) is reported as > 100 µM (active) and the IC50 [10] is reported as > 40.8 µM (inactive).
